Data from patent publication US9340559B2, “Proteasome inhibitor delanzomib for use in the treatment of lupus” (Cephalon, Inc., priority 2011, dated 2016).
Read-outs that look alike come from different tables or passages of the source.

How the values were obtained:
Type in all cases: in vivo, mouse
MRL/lpr mice [1] = test: Antibody secreting B-cell Elispot (anti-Smith Ag, anti-dsDNA, anti-chromatin ASC), spleens of MRL/lpr mice
Method: (§1) FIG. 9 depicts frequency of anti-Smith antigen and anti-dsDNA antibody secreting cells in the spleens of MRL/lpr mice. MRL/lpr treated mice spleens were processed for splenocytes for ex vivo Elispot assays. Elispot wells were coated with 10 μg/mL of smith antigen, dsDNA or ovalbumin protein. Fresh, whole splenocytes were added to each well at 500,000 cells per well in cell culture medium. Cells were incubated overnight at 37° C. Developed wells provided spots that were counted as frequency of ASCs per million splenocytes.
as §1, with “10” for “9”, “depicts the” for “depicts”, “anti-chromatin” for “anti-Smith antigen and anti-dsDNA”, “boiled chicken chromatin” for “smith antigen, dsDNA”, “[…]” for “500,000”
B-cell Elispot components are ordered from MabTech (Nacka Strand, Sweden) and nitrocellulose IP filter plates are ordered from Millipore (Billerica, Mass.). Elispot wells are coated with either purified bovine thymus dsDNA (Sigma), purified bovine Smith antigen (GenWay) or boiled filtered purified chicken chromatin from lysed chicken red blood cells (Rockland, Gilbertsville, Pa.) at 10 μg/mL. Spleens are processed using glass homogenization, filtered through a 60 μm sterile cell strainer and red blood cells (RBCs) lysed using BioLegend (San Diego, Calif.) lysis buffer. Processed splenocytes are added to each well in culture medium. To avoid skewing of true ex vivo frequencies of antibody secreting cell types (ASCs), cells are not stimulated with a polyclonal mitogen like LPS, but rather incubated in media alone to allow monitoring of genuine ex vivo antibody release. Anti-mouse pan-IgG is used as a positive control for total IgG producing ASCs and is used to normalize results. Frequencies for each antigen are identified in an initial test phase for each model. For chromatin and total IgG only, 30,000 splenocytes are added to each well; for Smith antigen and dsDNA, 500,000 cells are added to each well. Different numbers of splenocytes are added for different antigens due to saturation limits of spot frequencies per well. These limits are previously established. B-cell Elispots are incubated overnight at 37° C. To develop each assay, secondary antibody is added to each well, incubated, washed and alkaline phosphatase strepavidin is used as the conjugate; substrate used is BCIP-NBT. Plates are developed until spots are visible. All Elispot analyses are performed using an Immunospot C.T.L. scanner and Biospot software (Cellular Technology Ltd., Shaker Heights, Ohio). Results are shown as values from which media and cells only wells are subtracted. Some values are negative due to high background.

MRL/lpr mice [2] = test: Antinuclear antibody (ANA) ELISA (anti-chromatin, anti-Smith Ag, anti-dsDNA IgG), serum of MRL/lpr mice
Excerpt: For all ANA ELISA assays, values below the limit of detection set by the lowest point along the standard or set by the manufacturer are considered out of range and are not estimated, but assumed the lowest point along the standard curve for that particular assay.

NZM mice [3] = test: Antinuclear antibody (ANA) ELISA (anti-chromatin, anti-Smith Ag, anti-dsDNA), serum of NZM mice (Example 2)
NZM mice [4] = tested on: NZM mice
NZM mice [5] = test: Collagen type-I cross-linker (CTx) bone resorption biomarker ELISA, serum of NZM mice
Method: Assay is performed as instructed by the manufacturer. Briefly, biotinylated ratlaps antigen is first added in each well of a 96-well ELISA plate. This plate is covered and incubated for 30 minutes at RT. Plate is washed five times with washing solution and incubated with standards or unknown samples in appropriate wells followed by primary Ab. Incubate overnight for 18 hours at 4° C. followed by washing with buffer. Secondary incubation includes a peroxidase conjugated goat anti-rabbit IgG added to each well and incubation at RT for 1 hour. Incubation with chromogenic substrate solution for 15 minutes at RT in the dark develops the plate for analysis. Stopping solution halts the reaction, absorbance is measured within 2 hours at 450 nm.

SMILES: CC(C)C[C@H](NC(=O)[C@H](Cc1ccccc1)NC(=O)c1cnccn1)B(O)O [bortezomib, reference compound]
- ASC EOS Smith Ag, percent change vs vehicle (MRL/lpr mice [1]; G4: 0.5 mg/kg iv, 1× wk): −74%
- ASC EOS chromatin, percent change vs vehicle (MRL/lpr mice [1]; G4: 0.5 mg/kg iv, 1× wk): −64%
- ASC EOS dsDNA, percent change vs vehicle (MRL/lpr mice [1]; G4: 0.5 mg/kg iv, 1× wk): −58%
- ASC EOS Smith Ag, percent change vs vehicle (MRL/lpr mice [1]; G5: 0.3 mg/kg iv, 2× wk): +73%
- ASC EOS chromatin, percent change vs vehicle (MRL/lpr mice [1]; G5: 0.3 mg/kg iv, 2× wk): +5%
- ASC EOS dsDNA, percent change vs vehicle (MRL/lpr mice [1]; G5: 0.3 mg/kg iv, 2× wk): +219%
- ANA AUC Smith Ag, percent change vs vehicle (MRL/lpr mice [2]; G4: 0.5 mg/kg iv, 1× wk): −84%
- ANA AUC chromatin, percent change vs vehicle (MRL/lpr mice [2]; G4: 0.5 mg/kg iv, 1× wk): −82%
- ANA AUC dsDNA, percent change vs vehicle (MRL/lpr mice [2]; G4: 0.5 mg/kg iv, 1× wk): −88%
- ANA AUC Smith Ag, percent change vs vehicle (MRL/lpr mice [2]; G5: 0.3 mg/kg iv, 2× wk): −58%
- ANA AUC chromatin, percent change vs vehicle (MRL/lpr mice [2]; G5: 0.3 mg/kg iv, 2× wk): −58%
- ANA AUC dsDNA, percent change vs vehicle (MRL/lpr mice [2]; G5: 0.3 mg/kg iv, 2× wk): −76%
- anti-Smith Ag IgG ANA level decrease vs vehicle at EOS (MRL/lpr mice [2]; Group 4): 74%
- anti-dsDNA IgG ANA decrease vs vehicle (MRL/lpr mice [2]; Group 4 (iv)): 82%
- anti-dsDNA IgG ANA decrease vs vehicle (MRL/lpr mice [2]; Group 5 (iv)): 58%
- anti-chromatin IgG level decrease vs vehicle (MRL/lpr mice [2]; weekly bortezomib dose): 64%
- ANA Smith Ag AUC, percent change vs vehicle (NZM mice [3]; G3 0.3 mg/kg ip, 1× wk): −22%
- ANA chromatin AUC, percent change vs vehicle (NZM mice [3]; G3 0.3 mg/kg ip, 1× wk): 113%
- ANA dsDNA AUC, percent change vs vehicle (NZM mice [3]; G3 0.3 mg/kg ip, 1× wk): 95%
- ANA Smith Ag AUC, percent change vs vehicle (NZM mice [3]; G4 0.3 mg/kg ip, 2× wk): −53%
- ANA chromatin AUC, percent change vs vehicle (NZM mice [3]; G4 0.3 mg/kg ip, 2× wk): −22%
- ANA dsDNA AUC, percent change vs vehicle (NZM mice [3]; G4 0.3 mg/kg ip, 2× wk): −2%
- reduction in anti-chromatin Ab relative to vehicle, significance (NZM mice [3]; bortezomib, Dex or CTX treatment groups): none of which was significant
- serum anti-dsDNA Ab increase vs vehicle (NZM mice [3]; once weekly bortezomib): 95%
- serum anti-Smith Ag Ab decrease vs vehicle (NZM mice [3]; once weekly bortezomib (0.3 mg/kg ip)): 22%
- serum anti-dsDNA Ab decrease vs vehicle (NZM mice [3]; twice weekly bortezomib): 2%
- serum anti-chromatin Ab decrease vs vehicle (NZM mice [3]; twice weekly bortezomib (0.3 mg/kg ip)): 22%
- Cytokine IL-12 AUC, percent change vs vehicle (NZM mice [4]; G3 0.3 mg/kg ip, 1× wk): −32%
- Cytokine IL-13 AUC, percent change vs vehicle (NZM mice [4]; G3 0.3 mg/kg ip, 1× wk): −66%
- Cytokine IL-17A AUC, percent change vs vehicle (NZM mice [4]; G3 0.3 mg/kg ip, 1× wk): −73%
- Cytokine IP-10 AUC, percent change vs vehicle (NZM mice [4]; G3 0.3 mg/kg ip, 1× wk): −50%
- Cytokine MIG AUC, percent change vs vehicle (NZM mice [4]; G3 0.3 mg/kg ip, 1× wk): −67%
- Cytokine TNFα AUC, percent change vs vehicle (NZM mice [4]; G3 0.3 mg/kg ip, 1× wk): 12%
- Cytokine IL-12 AUC, percent change vs vehicle (NZM mice [4]; G4 0.3 mg/kg ip, 2× wk): −55%
- Cytokine IL-13 AUC, percent change vs vehicle (NZM mice [4]; G4 0.3 mg/kg ip, 2× wk): −65%
- Cytokine IL-17A AUC, percent change vs vehicle (NZM mice [4]; G4 0.3 mg/kg ip, 2× wk): −85%
- Cytokine IP-10 AUC, percent change vs vehicle (NZM mice [4]; G4 0.3 mg/kg ip, 2× wk): −59%
- Cytokine MIG AUC, percent change vs vehicle (NZM mice [4]; G4 0.3 mg/kg ip, 2× wk): −72%
- Cytokine TNFα AUC, percent change vs vehicle (NZM mice [4]; G4 0.3 mg/kg ip, 2× wk): −29%
- p, serum IL-12p40/p70 concentration vs G9 Vehicle 1× wk ip (NZM mice [4]; G5 0.3 mg/kg 1× wk ip): NS (NS = not significant (p > 0.05))
- p, serum IL-13 concentration vs G9 Vehicle 1× wk ip (NZM mice [4]; G5 0.3 mg/kg 1× wk ip): NS (NS = not significant (p > 0.05))
- p, serum IL-17A concentration vs G9 Vehicle 1× wk ip (NZM mice [4]; G5 0.3 mg/kg 1× wk ip): NS (NS = not significant (p > 0.05))
- p, serum IP-10 concentration vs G9 Vehicle 1× wk ip (NZM mice [4]; G5 0.3 mg/kg 1× wk ip): p < 0.001
- p, serum MIG concentration vs G9 Vehicle 1× wk ip (NZM mice [4]; G5 0.3 mg/kg 1× wk ip): NS (NS = not significant (p > 0.05))
- p, serum TNFα concentration vs G9 Vehicle 1× wk ip (NZM mice [4]; G5 0.3 mg/kg 1× wk ip): NS (NS = not significant (p > 0.05))
- p, serum IL-12p40/p70 concentration vs G9 Vehicle 1× wk ip (NZM mice [4]; G6 0.3 mg/kg 2× wk ip): p < 0.05
- p, serum IL-13 concentration vs G9 Vehicle 1× wk ip (NZM mice [4]; G6 0.3 mg/kg 2× wk ip): NS (NS = not significant (p > 0.05))
- p, serum IL-17A concentration vs G9 Vehicle 1× wk ip (NZM mice [4]; G6 0.3 mg/kg 2× wk ip): NS (NS = not significant (p > 0.05))
- p, serum IP-10 concentration vs G9 Vehicle 1× wk ip (NZM mice [4]; G6 0.3 mg/kg 2× wk ip): p < 0.001
- p, serum MIG concentration vs G9 Vehicle 1× wk ip (NZM mice [4]; G6 0.3 mg/kg 2× wk ip): NS (NS = not significant (p > 0.05))
- p, serum TNFα concentration vs G9 Vehicle 1× wk ip (NZM mice [4]; G6 0.3 mg/kg 2× wk ip): NS (NS = not significant (p > 0.05))
- serum IL-12 decrease vs vehicle, range over the substance's groups (NZM mice [4]; once and twice weekly groups): 32-55%
- serum CXCL9/MIG as compared to CTX (NZM mice [4]; p<0.001 vs CTX, but not to DEX): decreased
- IL-13 serum levels compared to vehicle (NZM mice [4]; treatment groups): No significant change
- IL-17A serum levels compared to vehicle (NZM mice [4]; treatment groups): No significant change
- Serum CTx linker AUC, percent change vs vehicle (NZM mice [5]; G3 0.3 mg/kg ip, 1× wk): −27%
- Serum CTx linker AUC, percent change vs vehicle (NZM mice [5]; G4 0.3 mg/kg ip, 2× wk): −35%
- serum CTx levels compared to vehicle (NZM mice [5]; treatment groups): no change in CTx levels
